Measured values taken from patent EP0613890A1, “Novel triazole compound, process for preparing the same and antifungal agent containing the same” (NIHON NOHYAKU CO., LTD., priority 1993, dated 1994).

What was measured:
[1] = system: Candida albicans IFO 1270; experiment: Growth inhibition of Candida albicans in Sabouraud's glucose broth (Test Example 1); format: cell-based; details: Candida albicans IFO 1270, Sabouraud's glucose broth
Experimental: To 9.8 mℓ of Sabouraud's glucose broth, 0.1 mℓ of cell suspension of Candida albicans IFO 1270 (1.0 x 10⁷ cells/mℓ) and 0.1 mℓ of test compound solution (1000 or 10 µg/mℓ) was added. The growth inhibition ratio (%) was determined. For comparison, cis-1-acetyl-4-[4-[[2-(2,4-dichrolophenyl)-2-(imidazol-1-ylmethyl)-1,3-dioxolan-4-yl]methoxy]phenyl]piperazine (Ketoconazole) was used as a reference compound (hereinafter referred to as compound A).

[2] = system: Candida albicans IFO 1270; experiment: Survival of mice intravenously inoculated with Candida albicans, oral treatment (Test Example 2); format: in vivo; details: male ddy mice, i.v. Candida albicans IFO 1270 (1 x 10⁸ cells/kg); 10 mg/kg orally once a day for three days; 10th day from inoculation
Experimental: Six-week-old male ddy mice were used as test animals (10 animals per control group; 5 animals per test group). Each animal was intravenously inoculated with Candida albicans IFO 1270 (1 x 10⁸ cells/kg) which has been subcultured on Sabouraud's glucose agar at 37 °C for 24 hours.
After the inoculation, each test compound was orally administered at a dosage of 10 mg/kg to the animal once a day for consecutive three days.
On the 10th day from the inoculation, the survival rate was monitored.

With `C/C(=C\c1ccc(-c2nc[nH]n2)cc1)C(O)(Cn1cncn1)c1ccc(F)cc1F` (racemic) [compound 23] the “Growth Inhibition (%)” value ([1]; 0.1 µg/mℓ) was 8% and the “Growth Inhibition (%)” value ([1]; 10 µg/mℓ) was 67%.

With `C/C(=C\c1cccs1)C(O)(Cn1cncn1)c1ccc(F)cc1F` (racemic) [compound 10] the “Rate of Survival (%)” value [2] was 40%, the “Growth Inhibition (%)” value ([1]; 0.1 µg/mℓ) was 13% and the “Growth Inhibition (%)” value ([1]; 10 µg/mℓ) was 62%.

With `CC(=O)N1CCN(c2ccc(OC[C@H]3CO[C@](Cn4ccnc4)(c4ccc(Cl)cc4Cl)O3)cc2)CC1` (relative stereo) [compound A, cis-1-acetyl-4-[4-[[2-(2,4-dichrolophenyl)-2-(imidazol-1-ylmethyl)-1,3-dioxolan-4-yl]methoxy]phenyl]piperazine, reference compound] the “Rate of Survival (%)” value [2] was 20%, the “Growth Inhibition (%)” value ([1]; 0.1 µg/mℓ) was 62% and the “Growth Inhibition (%)” value ([1]; 10 µg/mℓ) was 76%.

With `C/C(=C\c1ccc(OC(F)(F)F)cc1)C(O)(Cn1cncn1)c1ccc(F)cc1F` (racemic) [Compound No. 6, 2-(2,4-Difluorophenyl)-2-[1-methyl-2-(4-trifluoromethoxyphenyl)ethenyl]-1-triazolyl-2-ethanol] the “Rate of Survival (%)” value [2] was 100%, the “Growth Inhibition (%)” value ([1]; 0.1 µg/mℓ) was 63% and the “Growth Inhibition (%)” value ([1]; 10 µg/mℓ) was 86%.

For `C/C(=C\c1ccc(OCC(F)(F)C(F)F)cc1)C(O)(Cn1cncn1)c1ccc(F)cc1F` (racemic) [compound 7], the “Rate of Survival (%)” value [2] was 100%, the “Growth Inhibition (%)” value ([1]; 0.1 µg/mℓ) was 60% and the “Growth Inhibition (%)” value ([1]; 10 µg/mℓ) was 86%.

In the case of `C/C(=C\Sc1ccc(F)cc1)C(O)(Cn1cncn1)c1ccc(F)cc1` (racemic) [compound 30], the “Rate of Survival (%)” value [2] is reported as 40%, the “Growth Inhibition (%)” value ([1]; 0.1 µg/mℓ) is reported as 11% and the “Growth Inhibition (%)” value ([1]; 10 µg/mℓ) is reported as 83%.

With `C/C(=C\C=C\c1ccc(C(F)(F)F)cc1)C(O)(Cn1cncn1)c1ccc(F)cc1F` (racemic) [compound 37] the “Rate of Survival (%)” value [2] was 100%, the “Growth Inhibition (%)” value ([1]; 0.1 µg/mℓ) was 50% and the “Growth Inhibition (%)” value ([1]; 10 µg/mℓ) was 78%.

`C/C(=C\c1ccc(SC(C)(C)C)cc1)C(O)(Cn1cncn1)c1ccc(F)cc1F` (racemic) [compound 26] was tested, and the “Growth Inhibition (%)” value ([1]; 0.1 µg/mℓ) was 48% and the “Growth Inhibition (%)” value ([1]; 10 µg/mℓ) was 67%.

`C/C(=C\c1ccc(C(=O)NNC=O)cc1)C(O)(Cn1cncn1)c1ccc(F)cc1F` (racemic) [compound 15] was tested, and the “Rate of Survival (%)” value [2] was 60%, the “Growth Inhibition (%)” value ([1]; 0.1 µg/mℓ) was 3% and the “Growth Inhibition (%)” value ([1]; 10 µg/mℓ) was 55%.

For `CC(=Cn1cncn1)C(O)(Cn1cncn1)c1ccc(F)cc1` (centres unmarked) [Compound No. 14], the “Rate of Survival (%)” value [2] was 100%.

For `C/C(=C\c1ccc(C#N)cc1)C(O)(Cn1cncn1)c1ccc(F)cc1F` (racemic) [Compound No. 5, 2-(2,4-Difluorophenyl)-2-[1-methyl-2(4-cyanophenyl)ethenyl]-1-triazolyl-2-ethanol], the “Rate of Survival (%)” value [2] was 100%, the “Growth Inhibition (%)” value ([1]; 0.1 µg/mℓ) was 72% and the “Growth Inhibition (%)” value ([1]; 10 µg/mℓ) was 96%.

In the case of `C/C(=C\c1ccc(CO)cc1)C(O)(Cn1cncn1)c1ccc(F)cc1F` (racemic) [compound 4], the “Rate of Survival (%)” value [2] is reported as 40%, the “Growth Inhibition (%)” value ([1]; 0.1 µg/mℓ) is reported as 8% and the “Growth Inhibition (%)” value ([1]; 10 µg/mℓ) is reported as 65%.

With `C/C(=C\C#Cc1ccc(F)cc1)C(O)(Cn1cncn1)c1ccc(F)cc1F` (racemic) [compound 36] the “Rate of Survival (%)” value [2] was 100%, the “Growth Inhibition (%)” value ([1]; 0.1 µg/mℓ) was 71% and the “Growth Inhibition (%)” value ([1]; 10 µg/mℓ) was 78%.

With `C/C(=C\c1ccc(C(=O)N2CCOCC2)cc1)C(O)(Cn1cncn1)c1ccc(F)cc1F` (racemic) [Compound No. 3] the “Rate of Survival (%)” value [2] was 40%, the “Growth Inhibition (%)” value ([1]; 0.1 µg/mℓ) was 0% and the “Growth Inhibition (%)” value ([1]; 10 µg/mℓ) was 76%.

With `C/C(=C\c1ccccn1)C(O)(Cn1cncn1)c1ccc(F)cc1F` (racemic) [compound 9] the “Rate of Survival (%)” value [2] was 20%, the “Growth Inhibition (%)” value ([1]; 0.1 µg/mℓ) was 72% and the “Growth Inhibition (%)” value ([1]; 10 µg/mℓ) was 84%.
